We go through eight molecules from ChEMBL document CHEMBL5352428, “Covalent inhibitors of bacterial peptidoglycan biosynthesis enzyme MurA with chloroacetamide warhead” (Eur J Med Chem, 2022).

In brackets after ≈: the same amount, converted by molar mass. Activity calls are given as the source filed them. The rule behind the calls is not given here.

One may read the IC50 as the midpoint of a concentration-inhibition curve. The term MIC denotes the lowest concentration that inhibits growth of the organism.

The nature of series [1]: Thiol reactivity of compound at pH 7.4 buffer assessed as fold decrease by measuring second order rate constant at 100 uM and measured for 4 hrs every 5 mins in presence of DTNB and TCEP by microplate reader analysis relative to Iodoacetamide. The class given is physicochemical. The note with it: pH 7.4, 4 h.
The nature of series [2]: Thiol reactivity of compound at pH 7.4 buffer at 100 uM and measured for 4 hrs every 5 mins in presence of DTNB and TCEP by microplate reader analysis. The class given is physicochemical. Conditions: pH 7.4, 4 h.
The test system of series [3] is Staphylococcus aureus. Kind of series: Antibacterial activity against Staphylococcus aureus ATCC 29213 assessed as bacterial growth inhibition at <= 128 ug/ml incubated for 24 hrs by broth dilution method. The class given is functional, organism-based. Conditions: dose <= 128.0 µg/ml.
Series [4] deals with Escherichia coli. Kind of series: Antibacterial activity against Escherichia coli ATCC 25922 assessed as bacterial growth inhibition at <=128 ug/ml incubated for 24 hrs by broth dilution method. The note with it: dose <= 128.0 µg/ml. Format: functional, organism-based. For orientation: In broth dilution the organism is exposed to a series of concentrations in liquid medium.

In series [5] the target is UDP-N-acetylglucosamine 1-carboxyvinyltransferase (Escherichia coli K-12) (UniProt P0A749). Kind of series: Irreversible inhibition of recombinant Escherichia coli MurA expressed in Escherichia coli NiCo21 using UNAG and PEP as substrate assessed as second-order rate constant for enzyme inactivation, ratio of Kinact/Ki preincubated for 30 mins in presence of UNAG followed by 100 fold dilution and PEP substrate addition and measured after 15 mins by malachite green based colorimetric assay. The note with it: time 45.0 min.

In series [6] the target is T1, UDP-N-acetylglucosamine 1-carboxyvinyltransferase (Escherichia coli K-12, UniProt P0A749). Nature of the series: Inhibition of recombinant Escherichia coli MurA expressed in Escherichia coli NiCo21 using UNAG and PEP as substrate preincubated for 30 mins in presence of UNAG followed by PEP substrate addition and measured after 15 mins by malachite green based colorimetric assay.

Series [7] concerns the target UDP-N-acetylglucosamine 1-carboxyvinyltransferase (Escherichia coli K-12) (UniProt P0A749). Nature of the series: Inhibition of recombinant Escherichia coli MurA expressed in Escherichia coli NiCo21 assessed as residual activity using UNAG and PEP as substrate at 500 uM preincubated for 30 mins in presence of UNAG followed by PEP substrate addition and measured after 15 mins by malachite green based colorimetric assay. The note with it: time 45.0 min.

Series [8] shares this target. Kind of series: Irreversible inhibition of recombinant Escherichia coli MurA expressed in Escherichia coli NiCo21 assessed as residual activity using UNAG and PEP as substrate at 1 mM preincubated for 30 mins in presence of UNAG followed by PEP substrate addition and measured after 15 mins by malachite green based colorimetric assay. The note with it: time 45.0 min.

Series [9] relates to Staphylococcus aureus. Nature of the series: Antibacterial activity against Staphylococcus aureus ATCC 29213 assessed as bacterial growth inhibition incubated for 24 hrs by broth dilution method. Format: functional.
The subject of series [10] is Escherichia coli. Kind of series: Antibacterial activity against Escherichia coli ATCC 25922 assessed as bacterial growth inhibition incubated for 24 hrs by broth dilution method. Format: functional.
In series [11] the target is UDP-N-acetylglucosamine 1-carboxyvinyltransferase (Escherichia coli K-12) (UniProt P0A749). Kind of series: Irreversible inhibition of recombinant Escherichia coli MurA expressed in Escherichia coli NiCo21 assessed as residual activity using UNAG and PEP as substrate at 400 uM preincubated for 30 mins in presence of UNAG followed by PEP substrate addition and measured after 15 mins by malachite green based colorimetric assay. Conditions: time 45.0 min.

Series [12] concerns the target T1, UDP-N-acetylglucosamine 1-carboxyvinyltransferase. Kind of series: Inhibition of recombinant Escherichia coli MurA expressed in Escherichia coli NiCo21 using UNAG and PEP as substrate preincubated for 15 mins in presence of UNAG followed by PEP substrate addition and measured after 15 mins by malachite green based colorimetric assay.
Series [13] concerns the target UDP-N-acetylglucosamine 1-carboxyvinyltransferase (Escherichia coli K-12) (UniProt P0A749). Kind of series: Binding affinity to UNAG activated recombinant Escherichia coli MurA Cys115 residue at 5 mM incubated for 30 mins in presence of UNAG by LC-MS/MS analysis.
Series [14] shares this target. Kind of series: Inhibition of recombinant Escherichia coli MurA expressed in Escherichia coli NiCo21 using UNAG and PEP as substrate and measured for 15 mins by malachite green based colorimetric assay.
Series [15] shares this target. Nature of the series: Irreversible inhibition of recombinant Escherichia coli MurA expressed in Escherichia coli NiCo21 assessed as residual activity using UNAG and PEP as substrate at 400 uM preincubated for 30 mins in presence of UNAG followed by 100 fold dilution and PEP substrate addition and measured after 15 mins by malachite green based colorimetric assay. The note with it: time 45.0 min.

T1 sequence (P0A749 whole entry): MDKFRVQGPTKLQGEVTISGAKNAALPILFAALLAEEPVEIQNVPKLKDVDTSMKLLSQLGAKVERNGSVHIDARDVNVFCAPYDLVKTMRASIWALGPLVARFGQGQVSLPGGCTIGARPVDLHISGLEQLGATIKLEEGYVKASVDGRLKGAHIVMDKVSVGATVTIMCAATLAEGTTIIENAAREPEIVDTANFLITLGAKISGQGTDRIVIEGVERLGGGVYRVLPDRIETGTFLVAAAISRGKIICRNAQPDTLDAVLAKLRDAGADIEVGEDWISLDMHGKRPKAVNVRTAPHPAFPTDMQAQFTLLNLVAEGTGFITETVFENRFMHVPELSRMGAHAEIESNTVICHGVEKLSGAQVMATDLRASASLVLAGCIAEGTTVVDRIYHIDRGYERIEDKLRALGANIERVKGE
UDP-N-acetylglucosamine 1-carboxyvinyltransferase (Escherichia coli K-12), sequence (P0A749 whole entry): as above

As for `O=C(CCl)N1CCC(N2CCC(Br)C2=O)C1` (stereo not drawn), the “fold change (FC)” value in series [1] was found to be 2. In addition, the Drug metabolism result in series [2] is recorded as “Metabolite_Detected”. Moreover, the outcome in series [3] and in series [4] was inactive. The Ratio in series [5] is 2.99 10^-4/µM/min. Besides, in series [6], the IC50 was 263 µM.
In the case of `O=C(CCl)Nc1nccs1`, in [1], the “fold change (FC)” value is on record as 4. Besides, the Drug metabolism result in [2] was “Metabolite_Detected”. In addition, in series [7], the Activity is 55%. The outcome in series [3] and in series [4] was inactive.
Consider `CC(=O)NC1CCCC2CCCCC21` (stereo not drawn), for which the Activity in [8] came to 96.1%.
Consider `O=C(CCl)N1CCN(CCC2CCCCC2)CC1`, for which, in [1], the “fold change (FC)” value came out at 3. Further, the MIC came out at 4 µg/mL (≈ 14.7 µM) in [9] and 16 µg/mL (≈ 58.6 µM) in series [10]. Moreover, the Drug metabolism entry in [2] is reported as “Metabolite_Detected”. Moreover, the Activity in series [7] came out at 81%.
In the case of `O=C(CCl)Nc1ccc2nsnc2c1`, the Drug metabolism result in series [2] is “Metabolite_Detected”. For the same molecule, the result in [3] and in series [4] was inactive. The Ratio in series [5] is 4.84 10^-4/µM/min. Besides, in [6], the half-maximal inhibitory concentration (IC50) was determined as 287 µM.
Consider `O=C(CCl)NC1CCCC2CCCCC21` (stereo not drawn), for which, in series [1], the “fold change (FC)” value was determined as 33. In [11], the Activity is 1.6%. For the same molecule, the Drug metabolism entry in [2] was “Metabolite_Notdetected”. The values for the IC50 in series [12] and in series [6] were 400 µM and 39 µM, respectively. The result in series [13] was Active. The inhibition entry in series [14] was “inactive”. The result in [3], in series [15] and in [4] was inactive. Moreover, the Ratio in series [5] is 4.78 10^-3/µM/min.
As to `O=C(CCl)Nc1ccc(C2CCCCC2)cc1`, in [1], the “fold change (FC)” value is listed as 167. Besides, the Drug metabolism entry in series [2] is “Metabolite_Detected”. Also, the Activity in series [7] amounted to 54%. Also, the outcome in series [3] and in series [4] was inactive.
Take `CS(=O)(=O)NC1CCN(C(=O)CCl)CC1`: in series [2], the Drug metabolism result was “Metabolite_Detected”. The result in series [3] and in series [4] was inactive. The Ratio in [5] is 4.16 10^-4/µM/min. Further, the half-inhibitory concentration (IC50) in series [6] stood at 240 µM.
